Measured values: ChEMBL document CHEMBL4428104, “Synthesis and antibacterial evaluation of hamacanthin B analogues” (2016)
Converted amounts (≈) assume the structure as drawn.

Legend:
Assay type in all cases: functional
Staphylococcus aureus [1] = experiment: Antibacterial activity against Staphylococcus aureus SG 511 after 24 hrs by two fold serial dilution method; conditions: SG 511, 24 h
Escherichia coli = experiment: Antibacterial activity against multidrug resistant Escherichia coli 1137 after 24 hrs by two fold serial dilution method
Staphylococcus aureus [2] = experiment: Antibacterial activity against methicillin resistant Staphylococcus aureus 3089 after 24 hrs by two fold serial dilution method; conditions: Staphylococcus aureus, 3089, 24 h
Enterococcus faecalis = experiment: Antibacterial activity against multidrug resistant Enterococcus faecalis 5210 after 24 hrs by two fold serial dilution method
[3] = Enterococcus faecalis, 5210, 24 h

Compound	MIC (Staphylococcus aureus [1])	MIC (Escherichia coli; Escherichia coli, 1137, 24 h)	MIC (Staphylococcus aureus [2])	MIC (Enterococcus faecalis; [3])	MIC (Escherichia coli)	MIC (Enterococcus faecalis)
O=C1NC[C@H](c2c[nH]c3ccccc23)N[C@@H]1c1c[nH]c2cc(Br)ccc12	20 mg/L (≈ 48.9 µM)	> 40 mg/L	> 40 mg/L	> 40 mg/L		
CN(C)[C@@H]1C(O)=C(C(N)=O)C(=O)[C@@]2(O)C(O)=C3C(=O)c4c(O)cccc4[C@@](C)(O)[C@H]3C[C@@H]12 [TETRACYCLINE]	0.16 mg/L (≈ 0.36 µM)					
O=c1[nH]cc(-c2c[nH]c3cc(Br)ccc23)nc1-c1c[nH]c2cc(Br)ccc12	10 mg/L (≈ 20.7 µM)	> 40 mg/L	20 mg/L (≈ 41.3 µM)	20 mg/L (≈ 41.3 µM)		
O=C(NCC(=O)c1c[nH]c2ccccc12)C(=O)c1c[nH]c2cc(Br)ccc12	> 40 mg/L	> 40 mg/L	> 40 mg/L	> 40 mg/L		
O=C1NC[C@H](c2c[nH]c3cc(Br)ccc23)N[C@@H]1c1c[nH]c2cc(Br)ccc12	20 mg/L (≈ 41 µM)	> 40 mg/L	40 mg/L (≈ 81.9 µM)	> 40 mg/L		
O=c1[nH]cc(-c2c[nH]c3ccccc23)nc1-c1c[nH]c2cc(Br)ccc12	2.5 mg/L (≈ 6.17 µM)	> 40 mg/L	20 mg/L (≈ 49.4 µM)	> 40 mg/L		
GENTAMICIN					> 40 mg/L	> 40 mg/L
O=C1NC[C@@H](c2c[nH]c3ccccc23)N[C@H]1c1c[nH]c2cc(Br)ccc12	40 mg/L (≈ 97.7 µM)	> 40 mg/L	> 40 mg/L	> 40 mg/L		
O=C1NC[C@@H](c2c[nH]c3cc(Br)ccc23)N[C@H]1c1c[nH]c2cc(Br)ccc12 [CIS-3,4-DIHYDROHAMACANTHIN B]	10 mg/L (≈ 20.5 µM)	> 40 mg/L	20 mg/L (≈ 41 µM)	40 mg/L (≈ 81.9 µM)		
CCn1cc(C(=O)O)c(=O)c2cc(F)c(N3CCNCC3)cc21 [NORFLOXACIN]		1.25 mg/L (≈ 3.91 µM)	> 40 mg/L			
CN[C@H](CC(C)C)C(=O)N[C@H]1C(=O)N[C@@H](CC(N)=O)C(=O)N[C@H]2C(=O)N[C@H]3C(=O)N[C@H](C(=O)N[C@H](C(=O)O)c4cc(O)cc(O)c4-c4cc3ccc4O)[C@H](O)c3ccc(c(Cl)c3)Oc3cc2cc(c3O[C@@H]2O[C@H](CO)[C@@H](O)[C@H](O)[C@H]2O[C@H]2C[C@](C)(N)[C@H](O)[C@H](C)O2)Oc2ccc(cc2Cl)[C@H]1O [VANCOMYCIN]			1.25 mg/L (≈ 0.863 µM)	2.5 mg/L (≈ 1.73 µM)		
O=C(NCC(=O)c1c[nH]c2cc(Br)ccc12)C(=O)c1c[nH]c2cc(Br)ccc12	> 40 mg/L	> 40 mg/L	> 40 mg/L	> 40 mg/L		
